Test [1] deals with Rh. Oryzae. Put plainly: Sensitivity of microscopic fungi in solution (colonies after exposure). In kind it is cell-based. The procedure: For the preparation of inoculum, were respectively used pure (2-5) days cultures of yeast and mycelial fungi, grown on Saburo's dense nutrient broth. Inoculum for plating was prepared in different ways, depending on the type of fungi. Thus, yeast crops (C. albicans) were prepared by washing the culture from an agar stroke. Cultures of mycelial fungi (Rh. oryzae, Asp. fumigatus) were pre-degraded in a pounder. A suspension of microorganisms was prepared in a sterile isotonic sodium chloride solution, bringing the inoculum density to 5 UNITS (GISK [State Research Institute of Standardization and Control] named after L. A. Tarasevich) or according to the McFarland standard 1 UNIT with a concentration of at least 1×10^6 CFU/ml, considering that the size of the fungal elements is approximately 10 times the size of bacteria (this provided the possibility of creating a mixture of biocide with suspension, the concentration of microorganisms of the order of 1×10^5 CFU/ml).
Solutions of compound I, miramistin, and benzalkonium chloride in working concentrations (0.1%, 0.2%, 0.3%) were poured into sterile 0.9 ml tubes. 0.1 ml of microbial suspension was added to test tubes with disinfectant solutions and mixed by shaking for several seconds. The exposition lasted for 1, 5, and 15 minutes. After required temporary exposure for action of the disinfectant, 0.5 ml of the neutralizer solution was added and mixed by shaking.
Then, 0.1 ml of the mixture was inoculated on a dense nutrient medium and the plates with inoculate were placed in a thermostat with a temperature of 27° C. for (2-4) days for yeast and (5-7) days for mycelial fungi, respectively.
After the time required for the cultivation of microorganisms of this species, the results were counted according to the number of colonies grown on the Petri dish. In the absence of growth, the time for culturing microorganisms was increased by a factor of 2. The grown colonies were subjected to microscopy.
The tested substances were studied on clinical and archival strains of yeast and mycelial fungi. As comparison drugs, drugs commonly used in clinical practice were used: miramistin and benzalconium chloride. After the required exposure time for action of the disinfectant, a series of 0.1 ml mixture was aseptically plated on the surface of a dense nutrient medium in Petri dishes. After the time of cultivation of microorganisms, the results were counted according to the number of colonies grown on the Petri dish.

Test [2] relates to Aspergillus fumigates RCPF F-1248/880. Put plainly: Antifungal activity, 2-fold serial dilutions in Saburo glucose broth. In kind it is cell-based, Asp. fumigates. The note with it: for MIC: Aspergillus. The procedure: The study of the antifungal activity of compound I in vitro was carried out in accordance with [Metodicheskiye rekomendatsii No 2. Mikologicheskoye issledovaniye ob″yektov okruzhayushchey sredy i opredeleniye protivogribkovoy aktivnosti razlichnykh veshchestv.—GOU DPO SPbMAPO NII meditsinskoy mikologii im. P. N. Kashkina, GBOU VPO SZGMU im. I. I. Mechnikova Minzdrava. SPb.: Izd. Dom SPbMAPO.—2008.—S. 16. Methodological recommendations No 2. Mycological examination of environmental objects and determination of antifungal activity of various substances.—State Educational Institution of St. Petersburg Medical Academy of Postgraduate Education with Scientific Research Institute of Medical Mycology named after P. N. Kashkin, State Educational Institution of Higher Professional Education North-West State Medical University named after I. I. Mechnikov, Ministry of Health. St. Petersburg.:: Publishing House SPbMAPO.—2008.—P. 16].
The study of the antifungal activity of substances in vitro was carried out in a liquid nutrient medium (Saburo glucose broth) in biological tubes by the method of 2-fold serial dilutions. In test tubes, three parallel series of dilutions of the test substance were prepared in the following way.
Saburo's liquid broth was sterilely poured in 3 ml into each tube; 4.5 ml was poured into the first tube of the row. A total of 14 tubes were used in a row; of which the last was a control one. […] The growth of cultures was initially assessed visually, comparing the growth of microorganisms in the presence of test compounds with the growth of culture without them. […] The first lowest concentration of the substance (from a series of consecutive dilutions), where the growth of fungi was suppressed or not visually determined, was considered the minimum inhibitory concentration (MIC).
For the preparation of inoculum, were respectively used pure (2-5) days cultures of yeast and mycelial fungi, grown on Saburo's dense nutrient broth. […] The inoculum was used within 15 minutes after preparation; the purity of the fungal strains was monitored before each experiment. […]

Like-named read-outs stand apart in the source and are kept apart here.

Regarding `CCCCCCCCCCCC[N+](C)(C)Cc1cnc(C[N+](C)(C)CCCCCCCCCCCC)c2c1COC(CC)O2` (centres unmarked) [Compound I, 5,8-(Bis(methylene (N, N-dimethyl-N-dodecylammonium))-2-ethyl-4H-[1,3]dioxino [4,5-c]pyridiniumdichloride], in test [1] (exposure 1 min, 0.1% solution), the “Number of colonies grown in a Petri dish” value turned out to be 1. For the same compound, in test [2] (RCPFF1248/880, Asp. fumigates RCPF F-l248/880, read-out: The value of the MIC), the MIC was found to be 62.5 µg/mL.

For the compound `CCCCCCCCCCCCCC(=O)NCCC[N+](C)(C)Cc1ccccc1.O.[Cl-]` [Miramistin, benzyldimethyl [3-(myristoylamino)propyl]-ammonium chloride monohydrate], the “Number of colonies grown in a Petri dish” value was 12 in test [1] (exposure 1 min, 0.1% solution); 2 in test [1] (exposure 1 min, 0.2% solution); 1 in test [1] (exposure 1 min, 0.3% solution); 10 in test [1] (exposure 5 min, 0.1% solution); 4 in test [1] (exposure 5 min, 0.2% solution); 2 in test [1] (exposure 15 min, 0.1% solution). Moreover, the MIC in test [2] (RCPFF1248/880, read-out: The value of the MIC) was 31.2 µg/mL.

Turning to “alkyldimethyl(phenylmethyl) ammonium chloride [Benzalconium chloride]”, the “Number of colonies grown in a Petri dish” value in test [1] (exposure 1 min, 0.1% solution) is 1. The “The value of the MIC” value in test [2] (Asp. fumigates RCPF F-l248/880) was determined as 15.6 µg/mL.

The MIC is the lowest concentration found to suppress growth.

(Values after patent US11014934B2, “Antiseptic drug” (AO “TATKHIMFARMPREPARATY”, priority 2017, dated 2021).)
